Data as given in patent US9150527B2, “Metalloenzyme inhibitor compounds” (Innocrin Pharmaceuticals, Inc., priority 2011, dated 2015).

Tests used:
CYP17 = CYP17 (Rattus norvegicus (Rat), UniProt P11715); assay: CYP17 metalloenzyme activity, rat testicular microsomes; format: biochemical; conditions: pooled rat testicular microsomes
Description: CYP17 activity was assayed according to the following procedure.

CYP3A4 = CYP3A4 (Homo sapiens (Human), UniProt P08684); assay: Inhibition of liver cytochrome P450 enzymes, pooled human liver microsomes
Chain of CYP3A4 (P08684 whole entry): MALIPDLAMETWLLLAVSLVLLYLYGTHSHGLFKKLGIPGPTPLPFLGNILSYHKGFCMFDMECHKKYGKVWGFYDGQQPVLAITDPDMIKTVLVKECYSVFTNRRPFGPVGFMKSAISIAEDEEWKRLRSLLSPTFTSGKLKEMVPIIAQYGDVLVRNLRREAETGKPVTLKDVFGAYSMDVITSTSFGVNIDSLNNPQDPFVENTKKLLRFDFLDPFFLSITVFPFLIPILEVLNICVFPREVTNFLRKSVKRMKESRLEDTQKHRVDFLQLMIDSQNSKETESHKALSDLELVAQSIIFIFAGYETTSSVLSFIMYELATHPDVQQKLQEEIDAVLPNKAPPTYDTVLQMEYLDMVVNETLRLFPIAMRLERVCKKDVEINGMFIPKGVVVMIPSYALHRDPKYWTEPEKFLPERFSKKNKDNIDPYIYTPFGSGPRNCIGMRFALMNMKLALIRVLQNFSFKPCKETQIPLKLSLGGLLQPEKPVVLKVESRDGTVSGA

CYP2C9 = CYP2C9 (Homo sapiens (Human), UniProt P11712); assay: biochemical
Chain of CYP2C9 (P11712 whole entry): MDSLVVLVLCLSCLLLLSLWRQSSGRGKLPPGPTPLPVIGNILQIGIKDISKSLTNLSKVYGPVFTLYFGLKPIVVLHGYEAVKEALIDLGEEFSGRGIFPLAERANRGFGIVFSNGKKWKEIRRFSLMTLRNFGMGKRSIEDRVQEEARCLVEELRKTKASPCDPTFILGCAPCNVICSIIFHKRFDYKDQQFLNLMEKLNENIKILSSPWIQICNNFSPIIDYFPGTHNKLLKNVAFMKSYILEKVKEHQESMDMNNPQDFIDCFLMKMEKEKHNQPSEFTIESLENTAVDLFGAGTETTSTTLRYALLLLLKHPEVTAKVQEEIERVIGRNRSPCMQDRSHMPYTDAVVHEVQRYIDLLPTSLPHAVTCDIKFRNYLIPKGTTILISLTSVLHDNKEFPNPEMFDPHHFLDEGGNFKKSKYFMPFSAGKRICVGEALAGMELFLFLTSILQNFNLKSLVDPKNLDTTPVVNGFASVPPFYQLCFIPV

CYP2C19 = CYP2C19 (Homo sapiens (Human), UniProt P33261); assay: biochemical
Chain of CYP2C19 (P33261 whole entry): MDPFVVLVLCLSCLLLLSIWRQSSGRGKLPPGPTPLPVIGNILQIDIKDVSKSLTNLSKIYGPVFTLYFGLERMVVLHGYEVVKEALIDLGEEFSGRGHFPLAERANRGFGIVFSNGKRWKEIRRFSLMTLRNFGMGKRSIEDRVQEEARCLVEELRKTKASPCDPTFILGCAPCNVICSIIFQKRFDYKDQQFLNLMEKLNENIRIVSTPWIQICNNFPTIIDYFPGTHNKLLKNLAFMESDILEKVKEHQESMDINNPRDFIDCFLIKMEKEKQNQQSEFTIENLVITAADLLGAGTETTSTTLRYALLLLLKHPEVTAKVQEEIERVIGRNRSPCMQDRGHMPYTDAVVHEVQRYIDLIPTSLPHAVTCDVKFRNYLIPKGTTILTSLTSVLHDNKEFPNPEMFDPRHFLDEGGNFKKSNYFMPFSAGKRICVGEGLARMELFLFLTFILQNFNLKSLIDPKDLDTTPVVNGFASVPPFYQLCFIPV

Chain of CYP17 (P11715 whole entry): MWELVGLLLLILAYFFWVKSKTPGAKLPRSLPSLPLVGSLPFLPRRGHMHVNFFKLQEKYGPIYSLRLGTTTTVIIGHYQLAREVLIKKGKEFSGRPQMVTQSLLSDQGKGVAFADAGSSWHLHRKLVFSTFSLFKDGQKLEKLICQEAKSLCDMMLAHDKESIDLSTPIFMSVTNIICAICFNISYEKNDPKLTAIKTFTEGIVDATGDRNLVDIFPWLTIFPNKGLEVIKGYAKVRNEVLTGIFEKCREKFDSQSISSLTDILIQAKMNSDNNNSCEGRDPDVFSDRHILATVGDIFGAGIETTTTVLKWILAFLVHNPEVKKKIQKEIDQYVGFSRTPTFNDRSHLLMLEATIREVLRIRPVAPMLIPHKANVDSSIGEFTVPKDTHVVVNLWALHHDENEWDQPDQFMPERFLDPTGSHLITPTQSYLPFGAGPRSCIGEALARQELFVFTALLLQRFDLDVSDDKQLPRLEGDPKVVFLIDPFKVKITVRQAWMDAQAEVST

IC50 (CYP17): 290 nM | IC50 (CYP3A4): 770 nM | IC50 (CYP2C9): 33000 nM | IC50 (CYP2C19): 3000 nM
Compound: COc1cc2ccc(C(O)(c3cncs3)C(C)C)cc2cc1OC (stereo not shown) [Example 2, 1-(6,7-dimethoxynaphthalen-2-yl)-2-methyl-1-(thiazol-5-yl)propan-1-ol]
